Results reported in the supplement of paper PMC11061612.

Legend:
Assay in all cases: combination Emax (second highest fraction inhibited in the dose matrix, 72 h); higher = more inhibition; extreme values may be limits of the assay
[1] = system: ATN-1 (T-Lymphoblastic Leukemia)
Method in brief: (§1)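 Cell lines grown in DMEM/F12 or RPMI with 10% FBS were plated in 1536-well plates and held 24 hours at 37°C, 5% CO2 before 72 hours of exposure to two-drug dose matrices, with DMSO typically at 0.2%. CellTiter-Glo 2.0 luminescence gave viability, which was converted to inhibition. Vehicle wells were set to 0 and blank wells to 1. Combination Emax is the second-highest inhibition in the matrix, and Bliss excess is the observed combination effect minus the expected EA + EB − EA·EB, where EA and EB are the single-agent effects.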

[2] = system: BC-1 (B-Cell Non-Hodgkin's Lymphoma)
Method in brief: as §1

[3] = system: CAL-85-1 (Breast Carcinoma)
Method in brief: as §1

DK-MG (Glioblastoma) = system: DK-MG (Glioblastoma)
Method in brief: as §1

[4] = system: GRANTA-519 (B-Cell Non-Hodgkin's Lymphoma)
Method in brief: as §1

[5] = system: HT-3 (Cervical Carcinoma)
Method in brief: as §1

[6] = system: IGROV-1 (Ovarian Carcinoma)
Method in brief: as §1

[7] = system: JURL-MK1 (Chronic Myelogenous Leukemia)
Method in brief: as §1

[8] = system: KNS-62 (Squamous Cell Lung Carcinoma)
Method in brief: as §1

MG-63 (Osteosarcoma) = system: MG-63 (Osteosarcoma)
Method in brief: as §1

[9] = system: MRK-nu-1 (Breast Carcinoma)
Method in brief: as §1

[10] = system: NCI-H1648 (Lung Adenocarcinoma)
Method in brief: as §1

[11] = system: NCI-H1975 (Lung Adenocarcinoma)
Method in brief: as §1

[12] = system: NCI-H2170 (Squamous Cell Lung Carcinoma)
Method in brief: as §1

NCI-H2452 (Mesothelioma) = system: NCI-H2452 (Mesothelioma)
Method in brief: as §1

[13] = system: NCI-H835 (Other Solid Carcinomas)
Method in brief: as §1

[14] = system: OCI-M1 (Acute Myeloid Leukemia)
Method in brief: as §1

[15] = system: RPMI-8402 (T-Lymphoblastic Leukemia)
Method in brief: as §1

[16] = system: SBC-5 (Small Cell Lung Carcinoma)
Method in brief: as §1

[17] = system: SCC90 (Head and Neck Carcinoma)
Method in brief: as §1

| SMILES | combination Emax [1] | combination Emax [2] | combination Emax [3] | combination Emax (DK-MG (Glioblastoma)) | combination Emax [4] | combination Emax [5] | combination Emax [6] | combination Emax [7] | combination Emax [8] | combination Emax (MG-63 (Osteosarcoma)) | combination Emax [9] | combination Emax [10] | combination Emax [11] | combination Emax [12] | combination Emax (NCI-H2452 (Mesothelioma)) | combination Emax [13] | combination Emax [14] | combination Emax [15] | combination Emax [16] | combination Emax [17] |
| --- | --- | --- | --- | --- | --- | --- | --- | --- | --- | --- | --- | --- | --- | --- | --- | --- | --- | --- | --- | --- |
| CC(=O)c1c(C)c2cnc(Nc3ccc(N4CCNCC4)cn3)nc2n(C2CCCC2)c1=O [Palbociclib] + Cc1c2c(nn1C)CSCc1cc(n(C)n1)CSc1cc(c3ccccc3c1)OCCCc1c(C(=O)O)n(C)c3c-2c(Cl)ccc13 [AZD5991] (first compound max 10 µM, 7x7, partner max 1 µM) | 0.954 | 1 | 0.234 | 0.366 | 0.295 | 0.693 | 0.815 | 1 | 0.329 | 0.406 | 0.993 | 0.406 | 0.321 | 0.389 | 0.336 | 0.416 | 0.457 | 0.974 | 0.443 | 0.965 |
| CS(=O)(=O)CCNCc1ccc(-c2ccc3ncnc(Nc4ccc(OCc5cccc(F)c5)c(Cl)c4)c3c2)o1 [Lapatinib] + NC1(c2ccc(-c3nc4ccn5c(=O)[nH]nc5c4cc3-c3ccccc3)cc2)CCC1 [MK-2206] (first compound max 10 µM, 7x7, partner max 10 µM) | – | 0.957 | 0.9 | – | – | – | – | – | 0.721 | 0.924 | 0.361 | 0.99 | – | – | 0.554 | 0.868 | 0.844 | 1 | 0.853 | 0.962 |
| COc1nnc2ccc(N3CCC(c4ccc(OCCN5CCN(C)C(=O)[C@H]5C)cc4)CC3)nn12 [AZD5153] + C=CCn1c(=O)c2cnc(Nc3ccc(N4CCN(C)CC4)cc3)nc2n1-c1cccc(C(C)(C)O)n1 [AZD1775] (first compound max 1 µM, partner max 1 µM) | 0.98 | 0.979 | 0.598 | 0.689 | 0.874 | 0.553 | 0.838 | 0.998 | 0.542 | 0.671 | 0.309 | 0.737 | 0.728 | 0.735 | 0.605 | 0.582 | 0.999 | 1 | 0.846 | 0.714 |
| CC1(C)CCC(CN2CCN(c3ccc(C(=O)NS(=O)(=O)c4ccc(NCC5CCOCC5)c([N+](=O)[O-])c4)c(Oc4cnc5[nH]ccc5c4)c3)CC2)=C(c2ccc(Cl)cc2)C1 [Venetoclax] + CS(=O)(=O)CCNCc1ccc(-c2ccc3ncnc(Nc4ccc(OCc5cccc(F)c5)c(Cl)c4)c3c2)o1 [Lapatinib] (first compound max 1 µM, 7x7, partner max 10 µM) | – | 0.904 | 0.657 | – | – | – | – | – | 0.186 | 0.302 | 0.114 | 0.624 | – | – | 0.29 | 0.294 | – | 0.839 | – | – |
| CS(=O)(=O)CCNCc1ccc(-c2ccc3ncnc(Nc4ccc(OCc5cccc(F)c5)c(Cl)c4)c3c2)o1 [Lapatinib] + Cn1cnc2c(F)c(Nc3ccc(Br)cc3Cl)c(C(=O)NOCCO)cc21 [Selumetinib] (first compound max 10 µM, 7x7, partner max 10 µM) | – | 0.787 | 0.85 | – | – | – | – | – | 0.626 | 0.453 | 0.441 | 0.764 | – | – | 0.466 | 0.257 | – | 0.924 | – | – |
| Cc1nc(-c2cn3c(n2)-c2ccc(-c4cnn(C(C)(C)C(N)=O)c4)cc2OCC3)n(C(C)C)n1 [Taselisib] + O=C(Nc1ccc2[nH]nc(-c3ccncc3)c2c1)[C@@H]1CCN(CC(=O)N2CCN(c3ccc(-c4ncccn4)cc3)CC2)C1 [SCH772984] (first compound max 10 µM, 7x7, partner max 5 µM) | – | 0.652 | 0.935 | – | – | – | – | – | 0.787 | 0.746 | 0.542 | 1 | – | – | 0.534 | 0.71 | – | 0.898 | – | – |
| O=C(c1cc(Cc2n[nH]c(=O)c3ccccc23)ccc1F)N1CCN(C(=O)C2CC2)CC1 [Olaparib] + COc1nnc2ccc(N3CCC(c4ccc(OCCN5CCN(C)C(=O)[C@H]5C)cc4)CC3)nn12 [AZD5153] (first compound max 10 µM, 7x7, partner max 1 µM) | – | 0.873 | 0.613 | – | – | – | – | – | 0.436 | 0.717 | 0.467 | 0.684 | – | – | 0.407 | 0.403 | – | 0.9 | – | – |
| O=C(c1cc(Cc2n[nH]c(=O)c3ccccc23)ccc1F)N1CCN(C(=O)C2CC2)CC1 [Olaparib] + Cc1c2c(nn1C)CSCc1cc(n(C)n1)CSc1cc(c3ccccc3c1)OCCCc1c(C(=O)O)n(C)c3c-2c(Cl)ccc13 [AZD5991] (first compound max 10 µM, 7x7, partner max 1 µM) | – | 1 | 0.168 | – | – | – | – | – | 0.128 | 0.216 | 1 | 0.384 | – | – | 0.165 | 0.149 | – | 0.857 | – | – |
| Cc1c2c(nn1C)CSCc1cc(n(C)n1)CSc1cc(c3ccccc3c1)OCCCc1c(C(=O)O)n(C)c3c-2c(Cl)ccc13 [AZD5991] + Nc1ccn([C@@H]2O[C@H](CO)[C@@H](O)C2(F)F)c(=O)n1 [Gemcitabine] (first compound max 1 µM, 7x7, partner max 0.3 µM) | – | 1 | 0.558 | – | – | – | – | – | 0.413 | 0.82 | 1 | 0.5 | – | – | 0.319 | 0.42 | – | 1 | – | – |
| CCc1c2c(nc3ccc(O)cc13)-c1cc3c(c(=O)n1C2)COC(=O)[C@]3(O)CC [SN-38] + O=C(c1cc(Cc2n[nH]c(=O)c3ccccc23)ccc1F)N1CCN(C(=O)C2CC2)CC1 [Olaparib] (first compound max 0.3 µM, 7x7, partner max 10 µM) | 1 | 1 | 0.702 | 0.259 | – | 0.979 | – | 1 | 0.905 | 0.896 | 0.868 | 0.915 | 0.545 | 0.969 | 0.316 | 0.268 | – | 1 | – | 0.632 |
| C[C@@H]1COCCN1c1cc(C2([S@](C)(=N)=O)CC2)nc(-c2ccnc3[nH]ccc23)n1 [AZD6738] + Nc1ccn([C@@H]2O[C@H](CO)[C@@H](O)C2(F)F)c(=O)n1 [Gemcitabine] (first compound max 10 µM, 7x7, partner max 0.3 µM) | – | 0.985 | 0.726 | – | – | – | – | – | 0.665 | 1 | 0.781 | 0.725 | – | – | 0.763 | 0.446 | – | 1 | – | – |
| C[C@@H](Nc1cc(F)cc(F)c1)c1cc(C(=O)N(C)C)cc2c(=O)cc(N3CCOCC3)oc12 [AZD8186] + C1CN(CCC1(C(=O)N[C@@H](CCO)C2=CC=C(C=C2)Cl)N)C3=NC=NC4=C3C=CN4 [AZD5363] (first compound max 10 µM, 7x7, partner max 10 µM) | – | 0.577 | 0.214 | – | – | – | – | – | 0.533 | 0.694 | 0.305 | 0.707 | – | – | 0.336 | 0.525 | – | 0.588 | – | – |
| C[C@@H]1COCCN1c1cc(C2([S@](C)(=N)=O)CC2)nc(-c2ccnc3[nH]ccc23)n1 [AZD6738] + C1CC(C1)(C(=O)[O-])C(=O)[O-].N.N.[Pt+2] [Carboplatin] (first compound max 10 µM, 7x7, partner max 10 µM) | – | 0.849 | 0.382 | – | – | – | – | – | 0.438 | 0.524 | 0.6 | 0.571 | – | – | 0.432 | 0.322 | – | 0.967 | – | – |
| Cc1c2c(nn1C)CSCc1cc(n(C)n1)CSc1cc(c3ccccc3c1)OCCCc1c(C(=O)O)n(C)c3c-2c(Cl)ccc13 [AZD5991] + CC(=O)O[C@H]1C(=O)[C@@]2(C)[C@H]([C@H](OC(=O)c3ccccc3)[C@]3(O)C[C@H](OC(=O)[C@H](O)[C@@H](NC(=O)c4ccccc4)c4ccccc4)C(C)=C1C3(C)C)[C@]1(OC(C)=O)CO[C@@H]1C[C@@H]2O [Paclitaxel] (first compound max 1 µM, 7x7, partner max 3 µM) | – | 1 | 0.806 | – | – | – | – | – | 0.6 | 0.88 | 1 | 0.929 | – | – | 0.838 | 0.453 | – | 1 | – | – |
| Cc1c2c(nn1C)CSCc1cc(n(C)n1)CSc1cc(c3ccccc3c1)OCCCc1c(C(=O)O)n(C)c3c-2c(Cl)ccc13 [AZD5991] + CS(=O)(=O)CCNCc1ccc(-c2ccc3ncnc(Nc4ccc(OCc5cccc(F)c5)c(Cl)c4)c3c2)o1 [Lapatinib] (first compound max 1 µM, 7x7, partner max 10 µM) | – | 1 | 0.825 | – | – | – | – | – | 0.213 | 0.157 | 1 | 0.895 | – | – | 0.414 | 0.332 | – | 0.955 | – | – |
